From patent US20240226126A1, “COMPOSITIONS FOR TREATMENT OF PSORIASIS” (The Board of Trustees of the Leland Stanford Junior …, priority 2021, published 2024)
“Also recorded” adds a separate entry of the source. Like-named read-outs stand apart in the source and are kept apart here.

Key:
[1] = test system: primary psoriasis keratinocytes (PSOKC); assay: MTT proliferation assay, primary psoriasis keratinocytes; assay type: cell-based, human; conditions: for proliferation in PSOKCs: 10 μM
Method: MTT assays. 10000 third-passage adult keratinocytes per well, or 25000 for IC50 curves, were seeded on a collagen-coated 96 well plate, and incubated with 50/50 (Medium 154 and Keratinocyte—SFM medium, Invitrogen with Human Keratinocytes Growth Supplement, S-001-5, Invitrogen, and Medium 154 supplement M-154-6 500, Invitrogen) with 1% antibiotic-antimycotic (30-004-CI, Mediatech Inc) for 48 h. 10 ul MTT reagent (MTT proliferation assay, ATCC, Manassas, US) was added for 4 h, 100 ul detergent was added to each well for 4 hours, and absorbance read at 570 nm (Spectramax M5, Molecular Devices, US), normalized to cell-free control absorbance.
Small molecule inhibition. All small molecules were diluted into concentrated stock solutions (all except YM-244769 were made into 50 mM stock solutions) in DMSO, and stored in aliquots at −20 C. Aliquots were thawed, then diluted to a 1000× stock concentration, then added to media so that final DMSO concentration is 0.1%. All in vitro studies entailing small molecule inhibition were accessed over 24 hour incubation period.
Statistical analysis. Microrarray data was analyzed using the affy package from Bioconductor on R statistical software package. Other statistical analysis was performed using Graphpad Prism 7.03, and statistical tests (unpaired t-tests with Welch correction, paired t-test, Mann-Whitney unpaired test, and linear regression analysis with goodness of fit) and sample sizes are outlined in each figure legend. Components of signature for goodness of fit by linear regression analysis were extrapolated from the benzamil rank aggregation algorithm All error bars denotes standard error of the mean. For IC50 calculations, MTT data absorbance values were calculated for percent change from the 0.1% DMSO vehicle condition. A non-linear fitted curve [log (inhibitor) vs response (three parameters)] in GraphPad Prism 7 was used to determine IC50 values. For mouse and xenograft experiments, ad hoc power calculations were based on prior phenotypic characterization of these models. Transgenic mice were randomized from same litters when possible, or based on similar phenotypic disease severity, and all experiments were run in triplicates or more. Sample size of xenografts mice studies were based on patient sample availability and a predicted graft take rate of 80%. For all comparisons, p values of less than 0.05 were considered statistically significant. All tests were two-tailed unless specified in figure legends.
(§1) Small molecule inhibitors. 10 uM benzamil hydrochloride hydrate (Sigma B2417), 10 uM amiloride hydrochloride (Tocris 890) 10 uM zoniporide dihydrochloride (Tocis 2727), 10 nM YM-244769 (Tocris 4544), 10 uM SEA 0400 2-[4-[(2,5-944 difluorophenyl)methoxy]phenoxy]-5-ethoxyaniline) (Tocris 6164), 10 uM triamterene (Sigma-Aldrich T4143).

[2] = test system: V12KC (primary keratinocytes transduced with V12 Rac1); assay: Proliferation of V12 Rac1 transduced primary keratinocytes vs LacZ control; assay type: cell-based; conditions: Homo sapiens, Keratinocyte
PSOKCs = assay: Intracellular pH assay (pHrodo red); assay type: cell-based, human; conditions: PSOKCs / primary keratinocytes overexpressing Rac1, 24 h, 10 uM; listed as Zoniporide
Method: Intracellular pH assays 25,000 were seeded per well of 96-well plate and allowed cells to settle and recover for 24 hrs. Small molecules or 0.1% DMSO vehicle control was added to culture media for 24 hours (n=6-8). Cells were washed once with 1× Live Cell Imaging Solution (LCIS) (ThermoFisher A14291DJ), and then incubated with pHrodo red (ThermoFisher P35372), PowerLoad (ThermoFisher P35372), in LCIS with added 1:5000 Hoechst (Life Technologies) for 30 min at 37 C 5% CO2 with corresponding small molecule added at same concentration used for 24 hour incubation.
as §1
Intracellular pH assays and standard curves. Cells were also washed 3 times with 1×LCIS with the last wash of 100 uL kept on cells. For generation of pH standard curve, additional wells (n=6-8) were treated as described with an addition of 0.1% DMSO vehicle for 24 hours. […] The 96-well plate was then read on a fluorescence microplate reader (Spectramax M5, Molecular Devices) with excitation/emission of […] and 361/497. […]

Rac1V12 transgenic mice = assay: Rac1V12 transgenic mouse model of psoriasis; assay type: in vivo
Method: Transgenic mice and mice for xenografting Rac1V12-transgenic mice were generated as previously described. For xenografting, NOD/SCID mice were used (NOD.CB17-PrkdcSCID/J mice; stock 001303; The Jackson Laboratory).
Topical formulation and administration. A rudimentary preparation of benzamil was tested using benzamil (6 mg/ml, benzamil, Sigma) in 100% ethanol. This solution was then topically applied through submerged and air-drying tails of mice under anesthesia, once daily for 15 days. Similarly, benzamil was suspended in water (2 mg/ml), then mixed into Vaseline, vortexed and centrifuged until a clear solution was obtained. A final formulation of benzamil is described in supplementary material and methods. For intraperitoneal injections, benzamil was dissolved at 2 mg/ml in water, and 0.7, 1.4 or 2.1 mg/kg was injected IP daily. For osmotic pump injections, Alzet osmotic pumps were used, (Alzet minipump 1002). Pumps were filled with 100 ul of benzamil in ethanol under sterile conditions, at a final dose of 2 mg/kg/day, and subcutaneous, inter-scapular implantations were performed under anesthesia. Pumps were replaced once for a total of 2×14 days treatment period.
Topical formulation of benzamil. A labrasol (88%) based formulation of benzamil was generated containing benzamil (1%, w/w), span-20 (1%) and cetyltrimethylammonium bromide (CTAB) (10%). Constituents were dissolved in ethyl alcohol, mixed well using vortex and sonication at 37° C. until a clear solution was obtained. Ethyl alcohol was evaporated in a Speedvac. The residue was suspended in Labrasol and homogenized to obtain the final formulation.
For a final formulation of benzamil (for use on human reconstructed skin), 52 ml water, 5.2 ml glycerin, 9.7 ml rice bran oil, 4 ml caprylic aid triglyceride, 6.2 g cetearyl alcohol, 8.6 g 50/50 mixture of cetearyl glucoside and cetearyl alcohol and 3.5 g cocoa butter was heated to 75° C. until dissolved, removed from heat, mixed using Cimarec 2 magnetic stir. At 45° C. […]

[3] = test system: Human Primary keratinocytes; assay: Cytokine response of TNF-α/IL-17 stimulated keratinocytes (Luminex); assay type: cell-based; conditions: TNF-α 10 ng/ml and IL-17 10 ng/ml, 48 hours
Method: Human Primary keratinocytes were purchased from Thermo Fisher. Keratinocytes were cultured in medium 154 supplemented with HKGS, split using TrypLE and neutralized using DMEM supplemented with 10% FBS. Cells were split to keep 20-80% confluency and not passaged above passage 5. Keratinocytes were detached using TrypLE Express, Trypsin Neutralizer solution was added and the detached cells transferred to a sterile conical tube. Cells were resuspended in 15 ml medium with HKGS supplemented (cat no S-001-K) but without hydrocortisone. The cells were pipetted up and down with a 10 ml pipette to ensure a homogeneous cell suspension.
Human primary keratinocytes detached as described above, were resuspended in PBS at 1×10^6 cells/ml and filtered through a 35 μm cell strainer. Cells were stained with CellTrace Violet at 5 μM for 20 minutes at 37° C., 5% CO2. After staining, DMEM supplemented with 10% FBS was added to stop staining and cells was incubated at 37° C., 5% CO2 for 5 minutes. After incubation, cells were washed with PBS 1× and resuspended in Medium 154 supplemented with HGKS without hydrocortisone at 6×10^5 cells/ml and 200 μl was added to wells in a 96-well flat bottom cell culture plate. Cells were incubated overnight at 37° C., 5% CO2/95% air. […]
Supernatants were analyzed for cytokines IL-6, IL-8, and CXCL1 using Luminex. […] Samples were analyzed on a Bio-Rad Luminex 200 analyzer. […]

## NC(=NCc1ccccc1)NC(=O)c1nc(Cl)c(N)nc1N [benzamil]
[1]; cells from 5 psoriasis donors, read-out: IC50 on proliferation
  IC50: ~1000 nM
[1]; range across donors, read-out: IC50 range in five psoriasis donor primary keratinocyte cultures
  IC50: 0.1 to 4600 nM
[2]
  IC50: 990 nM

## N=C(N)NC(=O)c1cnn(-c2cccc3ncccc23)c1C1CC1 [zoniporide]
[1]
  proliferation in PSOKCs: recapitulated benzamil's significant capacity to reduce proliferation
[1]; listed as Zoniporide
  proliferation in PSOKCs: reduced proliferation in PSOKCs to levels observed by Benzamil
PSOKCs
  intracellular pH: significantly reduced intracellular pH

## Bromocriptine
Rac1V12 transgenic mice; intraperitoneal 10 mg/kg every other day, 20 treatments, vs baseline
  signs of improvement (scaling, ulceration, erythema, epidermal thickening): improved after treatment

## Nc1nc(N)c2nc(-c3ccccc3)c(N)nc2n1 [triamterene]
[1]
  proliferation in PSOKCs: not achieved by amiloride or triamterene; also recorded: not amiloride or triamterene reduced proliferation

## C=C(CC)C(=O)c1ccc(OCC(=O)O)c(Cl)c1Cl [Ethacrynic acid]
[3]
  concentration with decrease of IL-8: 10 µM

## N=C(N)NC(=O)c1nc(Cl)c(N)nc1N [amiloride]
[1]
  proliferation in PSOKCs: not achieved by amiloride or triamterene; also recorded: not amiloride or triamterene reduced proliferation
Rac1V12 transgenic mice; systemic
  psoriasiform hyperplasia: failed to demonstrate any effect

## C[C@H]1C[C@H]2[C@@H]3CCC4=CC(=O)C=C[C@]4(C)[C@@]3(F)[C@@H](O)C[C@]2(C)[C@@]1(O)C(=O)CCl [clobetasol]
Rac1V12 transgenic mice; topical, compared to vehicle
  epidermal thickness: reduction in epidermal thickness

## Cc1cc(I)ccc1Nc1c(C(=O)NOCC2CC2)cc(F)c(F)c1F [PD198306]
[3]
  concentration with decrease of CXCL1: 100 nM
